Source: patent publication US6509002B1, “Diagnostic agent for diabetes” (priority 1997, dated 2003)

Assay: ^13C breath test, oral administration, diabetic vs normal rats
Type: in vivo, rat
Conditions: 90 mg/kg orally, Example 38
Method: As test animals, male Sprague-Dawley strain (SD) neonatal rats were purchased from Nippon Charles River K. K. together with their lactating rats. They were bred at 23±2° C. under 55±10% humidity before use. Insulin secretion-deficient type diabetes was generated by administering streptozotocin (STZ) to neonatal rats (“Saibokogaku (Cell Engineering)”, Extra Issue, medical Experiment Manual Series, Strategy for Study of Diabetes, edited by Susumu Seino and Yoshikazu Oka, published by Shujunsha Co., Japan). STZ was subcutaneously administered to 2-day-old rats at a dose of 90 mg/kg. The STZ had been dissolved in a citrate buffer (pH 4.5) and was administered within 5 min after the dissolution. Two days after the administration, blood was collected by cardiac puncture, and the casual blood sugar level of each rat was measured with Terumo […] (blood sugar measurement set). […] However, their fasting blood sugar levels increase only slightly and remain at almost normal levels. According to the standards stipulated by the Japan Diabetes Society (1982), those individuals with a fasting blood sugar level (in venous whole blood) of […] or more are regarded as having diabetes (“[…] (Diabetes Test Manual)”, edited by Yukio […], published by Nanko-Do Co., Japan). Then, those rats with a fasting blood sugar level of less than 120 mg/dl (and with a casual blood sugar level of 250 mg/dl or more) which are not regarded as having diabetes in a fasting blood sugar level test were selected from the above-described rats with insulin secretion-deficient type diabetes and used as a model of light diabetes. Breath tests were carried out according to the method as described in (2)-1 or (2)-2 below on diabetic rats prepared in (1) above (8-10-week-old) and normal rats (8-10-week-old). Δ^13C (‰)=[(^13C t min-^13C 0 min)/^13C std]×1000 […] A blood sample was collected from the tail vein, and its sugar level was determined using Terumo […] (blood sugar measurement set). The exhalation was sucked with a stroke pump 18 (variable stroke pump VS-500; Shibata Scientific Technology) at a rate of 100-300 ml/min and introduced directly into a flow cell in ^13CO2 Analyzer EX-130S (Japan Spectroscopic Co., Ltd.) 20. […] Pure Drier ([…] Pure Inc.) was located between the rat holder and the stroke pump 18 to remove moisture in the exhalation (FIG. 1). […] The data output from the ^13CO2 analyzer 20 were incorporated into a personal computer 21 (Apple Power Macintosh 8500) after AD conversion. Using the data processing software Lab VIEW (National Instruments), data on ten points at every 100 msec were added up and averaged at intervals of 5 sec and then converted into ^13C atom %, Δ^13C (‰) and CO2 gas concentration (%), to thereby perform a continuous measurement ^13C breath test. […] Δ^13C (‰) was calculated by the formula described above.

## ethoxy-^13C-methacetin
Diabetic rats
  slope from 12 to 17 min after the administration: −8.40±7.67 ‰/5 min
Normal rats
  slope from 12 to 17 min after the administration: 16.05±7.71 ‰/5 min
